One series concerns the target CYP2C9 (Homo sapiens, UniProt P11712). Nature of the series: Inhibition of CYP2C9 (unknown origin) using diclofenac substrate at 10 uM. The format is ADME. Conditions: probe diclofenac.
The target of series [1] is Sodium channel protein type 9 subunit alpha (Homo sapiens, UniProt Q15858). Briefly: Inhibition of human Nav1.7 expressed in HEK cells assessed as reduction in sodium current at -60 mV holding potential by PatchXpress platform based whole cell patch clamp electrophysiological assay. More on the design: species or system HEK293. (The patch-clamp technique gives a direct electrical read-out from membranes.)

The next series concerns the target CYP2C19 (Homo sapiens, UniProt P33261). Briefly: Inhibition of CYP2C19 (unknown origin) using omeprazole substrate at 10 uM. The format is ADME. Conditions: probe omeprazole.
The target of series [2] is Sodium channel protein type 5 subunit alpha (Homo sapiens, UniProt Q14524). Nature of the series: Inhibition of human Nav1.5 expressed in HEK cells assessed as reduction in sodium current at -60 mV holding potential by PatchXpress platform based whole cell patch clamp electrophysiological assay. Also noted: species or system HEK293.
Sequence of Sodium channel protein type 5 subunit alpha (Q14524 whole entry): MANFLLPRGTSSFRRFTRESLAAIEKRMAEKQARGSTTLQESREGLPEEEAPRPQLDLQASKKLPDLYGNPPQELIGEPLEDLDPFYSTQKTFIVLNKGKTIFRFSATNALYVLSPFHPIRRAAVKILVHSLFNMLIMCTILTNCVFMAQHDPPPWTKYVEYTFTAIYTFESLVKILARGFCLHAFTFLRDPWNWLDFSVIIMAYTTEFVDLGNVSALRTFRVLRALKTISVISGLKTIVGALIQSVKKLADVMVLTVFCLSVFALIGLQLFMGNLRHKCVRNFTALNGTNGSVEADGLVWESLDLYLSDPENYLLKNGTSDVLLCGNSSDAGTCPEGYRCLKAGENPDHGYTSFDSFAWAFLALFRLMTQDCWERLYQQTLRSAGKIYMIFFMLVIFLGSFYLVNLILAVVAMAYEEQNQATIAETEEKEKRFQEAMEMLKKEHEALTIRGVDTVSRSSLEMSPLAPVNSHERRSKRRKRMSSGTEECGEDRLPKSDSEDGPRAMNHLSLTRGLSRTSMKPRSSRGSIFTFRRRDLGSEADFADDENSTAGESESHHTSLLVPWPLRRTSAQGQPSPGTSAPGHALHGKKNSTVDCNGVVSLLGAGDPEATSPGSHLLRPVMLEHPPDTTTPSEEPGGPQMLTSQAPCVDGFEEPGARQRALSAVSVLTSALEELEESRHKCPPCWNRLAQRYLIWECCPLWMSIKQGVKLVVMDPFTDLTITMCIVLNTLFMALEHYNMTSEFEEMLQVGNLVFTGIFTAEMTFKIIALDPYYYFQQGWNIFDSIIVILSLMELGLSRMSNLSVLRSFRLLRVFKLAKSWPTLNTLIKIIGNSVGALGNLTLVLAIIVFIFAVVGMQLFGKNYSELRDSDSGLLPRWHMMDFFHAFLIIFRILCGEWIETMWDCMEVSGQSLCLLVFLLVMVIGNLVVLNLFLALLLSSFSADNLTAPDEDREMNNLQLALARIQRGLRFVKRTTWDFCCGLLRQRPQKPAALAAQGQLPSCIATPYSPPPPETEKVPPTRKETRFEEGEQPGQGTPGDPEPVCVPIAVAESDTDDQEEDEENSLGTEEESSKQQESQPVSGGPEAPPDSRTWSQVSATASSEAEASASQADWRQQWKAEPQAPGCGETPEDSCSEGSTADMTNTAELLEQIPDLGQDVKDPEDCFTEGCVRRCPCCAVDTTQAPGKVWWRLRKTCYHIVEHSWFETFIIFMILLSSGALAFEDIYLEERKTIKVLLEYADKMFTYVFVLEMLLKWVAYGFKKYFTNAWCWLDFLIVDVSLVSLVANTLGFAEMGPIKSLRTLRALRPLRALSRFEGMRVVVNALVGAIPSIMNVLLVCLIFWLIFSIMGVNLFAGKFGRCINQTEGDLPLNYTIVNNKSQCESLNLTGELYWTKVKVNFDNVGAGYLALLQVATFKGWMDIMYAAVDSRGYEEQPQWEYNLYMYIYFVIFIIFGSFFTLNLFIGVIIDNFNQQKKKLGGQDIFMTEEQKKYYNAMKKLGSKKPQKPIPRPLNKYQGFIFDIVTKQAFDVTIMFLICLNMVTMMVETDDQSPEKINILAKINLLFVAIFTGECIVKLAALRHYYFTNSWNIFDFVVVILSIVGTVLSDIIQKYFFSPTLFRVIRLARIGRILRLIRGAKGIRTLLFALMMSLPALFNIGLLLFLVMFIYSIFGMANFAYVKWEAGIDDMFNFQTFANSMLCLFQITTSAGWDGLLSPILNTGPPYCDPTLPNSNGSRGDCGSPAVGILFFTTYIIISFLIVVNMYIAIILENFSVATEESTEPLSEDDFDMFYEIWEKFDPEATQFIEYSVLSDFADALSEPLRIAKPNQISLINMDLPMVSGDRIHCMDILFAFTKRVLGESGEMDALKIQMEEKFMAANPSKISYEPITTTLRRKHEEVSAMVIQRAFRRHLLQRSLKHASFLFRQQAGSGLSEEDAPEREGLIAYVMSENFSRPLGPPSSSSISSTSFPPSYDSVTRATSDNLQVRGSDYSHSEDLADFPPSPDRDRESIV
Another series has as its target CYP2D6 (Homo sapiens, UniProt P10635). Nature of the series: (§1) Inhibition of CYP2D6 (unknown origin) using bufuralol substrate at 10 uM. The series is classed as ADME. The conditions noted are these: probe bufuralol.
Another series addresses CYP3A4 (Homo sapiens, UniProt P08684). Nature of the series: Inhibition of CYP3A4 (unknown origin) using midazolam substrate at 10 uM. The format is ADME. Conditions: probe midazolam.
Series [3] has as its target T1, Cytochrome P450 2D6 (Homo sapiens, UniProt P10635). Nature of the series: Inhibition of CYP2D6 (unknown origin) using bufuralol substrate. The series is classed as ADME.
The next series addresses Cytochrome P450 2C19 (Homo sapiens, UniProt P33261). Nature of the series: Inhibition of CYP2C19 (unknown origin) using omeprazole substrate. The format is ADME.
Another series deals with Cytochrome P450 3A4 (Homo sapiens, UniProt P08684). Briefly: Inhibition of CYP3A4 (unknown origin) using midazolam substrate. The format is ADME.
Sequence of Cytochrome P450 3A4 (P08684 whole entry): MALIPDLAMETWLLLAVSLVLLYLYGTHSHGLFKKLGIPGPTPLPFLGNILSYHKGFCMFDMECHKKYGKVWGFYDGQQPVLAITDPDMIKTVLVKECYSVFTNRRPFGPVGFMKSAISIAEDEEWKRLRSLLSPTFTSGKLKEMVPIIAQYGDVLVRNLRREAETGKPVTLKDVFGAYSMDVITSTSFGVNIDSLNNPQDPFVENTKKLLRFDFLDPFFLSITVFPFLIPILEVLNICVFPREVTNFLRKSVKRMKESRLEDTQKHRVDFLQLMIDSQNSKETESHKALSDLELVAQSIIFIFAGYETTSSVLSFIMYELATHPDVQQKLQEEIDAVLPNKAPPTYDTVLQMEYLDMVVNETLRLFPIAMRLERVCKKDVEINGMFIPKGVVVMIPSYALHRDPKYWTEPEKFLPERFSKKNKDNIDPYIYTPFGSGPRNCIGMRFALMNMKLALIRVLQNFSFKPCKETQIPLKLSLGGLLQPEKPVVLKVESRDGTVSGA
Another series has as its target Cytochrome P450 2C9 (Homo sapiens, UniProt P11712). Briefly: Inhibition of CYP2C9 (unknown origin) using diclofenac substrate. The series is classed as ADME.
In series [4] the target is T1, Cytochrome P450 2D6. The description is as §1. The series is classed as ADME. Conditions: 10 µM.

A value given as a limit tells only on which side of the number the result lay.

Sequence of CYP2C9 (P11712 whole entry): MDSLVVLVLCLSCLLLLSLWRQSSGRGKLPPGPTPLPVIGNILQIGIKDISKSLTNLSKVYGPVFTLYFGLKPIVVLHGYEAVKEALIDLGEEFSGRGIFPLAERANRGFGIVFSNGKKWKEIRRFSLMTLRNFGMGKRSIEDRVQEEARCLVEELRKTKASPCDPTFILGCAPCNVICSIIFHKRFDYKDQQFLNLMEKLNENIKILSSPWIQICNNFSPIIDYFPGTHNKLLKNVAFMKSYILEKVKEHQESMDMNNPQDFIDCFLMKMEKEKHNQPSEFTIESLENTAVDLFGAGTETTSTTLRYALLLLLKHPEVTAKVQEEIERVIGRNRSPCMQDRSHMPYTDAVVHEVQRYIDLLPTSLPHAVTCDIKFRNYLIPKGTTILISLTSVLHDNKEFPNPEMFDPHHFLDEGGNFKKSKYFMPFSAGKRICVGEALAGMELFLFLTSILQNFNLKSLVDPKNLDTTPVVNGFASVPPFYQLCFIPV
Sequence of CYP3A4 (P08684 whole entry): as the sequence (P08684 whole entry) above
Sequence of CYP2D6 (P10635 whole entry): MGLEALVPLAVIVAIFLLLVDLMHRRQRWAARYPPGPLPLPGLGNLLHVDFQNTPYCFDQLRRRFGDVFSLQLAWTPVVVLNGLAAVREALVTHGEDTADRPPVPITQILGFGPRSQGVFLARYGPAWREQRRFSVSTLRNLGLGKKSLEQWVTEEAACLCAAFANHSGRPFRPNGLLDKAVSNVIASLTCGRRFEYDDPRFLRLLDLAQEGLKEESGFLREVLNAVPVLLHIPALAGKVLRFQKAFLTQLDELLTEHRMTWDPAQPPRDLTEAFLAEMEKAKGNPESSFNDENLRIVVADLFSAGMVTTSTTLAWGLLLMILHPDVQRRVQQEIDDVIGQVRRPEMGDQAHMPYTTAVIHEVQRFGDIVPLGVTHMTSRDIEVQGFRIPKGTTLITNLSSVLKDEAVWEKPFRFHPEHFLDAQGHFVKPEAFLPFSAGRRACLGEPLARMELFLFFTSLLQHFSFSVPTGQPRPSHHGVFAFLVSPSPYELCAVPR
Sequence of CYP2C19 (P33261 whole entry): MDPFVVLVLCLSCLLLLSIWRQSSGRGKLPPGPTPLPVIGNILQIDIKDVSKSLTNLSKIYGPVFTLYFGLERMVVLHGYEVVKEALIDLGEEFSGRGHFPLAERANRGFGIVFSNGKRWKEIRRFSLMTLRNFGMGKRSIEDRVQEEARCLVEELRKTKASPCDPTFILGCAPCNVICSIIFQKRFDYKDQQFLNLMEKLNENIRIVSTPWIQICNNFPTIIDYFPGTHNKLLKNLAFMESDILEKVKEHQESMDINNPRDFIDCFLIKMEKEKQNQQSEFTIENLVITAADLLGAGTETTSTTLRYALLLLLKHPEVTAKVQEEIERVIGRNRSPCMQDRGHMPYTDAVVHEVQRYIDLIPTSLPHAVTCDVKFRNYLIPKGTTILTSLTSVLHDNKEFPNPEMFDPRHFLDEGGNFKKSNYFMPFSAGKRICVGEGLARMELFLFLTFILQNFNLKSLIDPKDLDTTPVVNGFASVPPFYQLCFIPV
T1 sequence (P10635 whole entry): as the sequence (P10635 whole entry) above
Sequence of Cytochrome P450 2C9 (P11712 whole entry): as the sequence (P11712 whole entry) above
Sequence of Cytochrome P450 2C19 (P33261 whole entry): as the sequence (P33261 whole entry) above

One may read the inhibition as the drop in the measured response relative to a control, in per cent. Higher therefore signals a response far below the control. Broadly, the IC50 is the point on the concentration scale where inhibition reaches its midpoint. As for `O=S(=O)(Nc1ncns1)c1cc(F)c(OC[C@@H]2CCCC[C@H]2c2ccc(Cl)cc2)cc1F` (relative stereo), the inhibition at 10 µM at CYP2C9 was 100%; against CYP2C19, 95%; against CYP2D6, 66%; against CYP3A4, 99%. For the same compound, the concentration for half-maximal inhibition (IC50) was found to be 0.28 µM in series [1] and 24.7 µM in series [2].
Take `O=S(=O)(Nc1ncccn1)c1cc(F)c(OC[C@@H]2CNCC[C@H]2c2ccc(Cl)cc2)cc1F` (relative stereo): the inhibition at 10 µM stood at 60% on CYP2C9, 15% on CYP2C19, 34% at CYP2D6 and 12% at CYP3A4. The half-inhibitory concentration (IC50) in series [1] is 0.053 µM; in [2], greater than 10 µM.
For `O=S(=O)(Nc1ncc(Cl)s1)c1cc(F)c(OC[C@@H]2CNCC[C@H]2c2ccc(Cl)cc2)cc1F` (relative stereo), the inhibition at 10 µM against CYP2C9 is 100%; against CYP2C19 it was 20%; against CYP2D6, 40%; against CYP3A4 it was 11%.
Take `O=S(=O)(Nc1ncns1)c1cc(F)c(OCC2(F)CNCCC2c2ccc(F)cc2)cc1F` (stereo not drawn): the inhibition at 10 µM is 99% at CYP2C9, 71% against CYP2C19, 78% against CYP2D6 and 94% against CYP3A4. The IC50 in [2] is greater than 10 µM.
Consider `O=S(=O)(Nc1ncns1)c1cc(F)c(OC[C@H]2CNCC[C@H]2c2ccc(Cl)cc2)cc1F`, for which, in series [1], the IC50 worked out at 0.237 µM.
Take `O=S(=O)(Nc1cccnn1)c1cc(F)c(OC[C@@H]2CNCC[C@H]2c2ccc(Cl)cc2)cc1F` (relative stereo): the inhibition at 10 µM on CYP2C9 came out at 49%; on CYP2C19, 36%; against CYP2D6 it was 37%; at CYP3A4, 13%. In [1], the 50% inhibitory concentration (IC50) was determined as 0.171 µM.
As for `O=S(=O)(Nc1ncns1)c1cc(F)c(OC[C@@H]2CNC[C@H]2c2ccc(Cl)cc2)cc1F` (relative stereo), the inhibition at 10 µM at CYP2C9 is 100%; on CYP2C19 it was 90%; on CYP2D6, 97%; on CYP3A4, 93%. In series [1], the IC50 was 0.05 µM.
Consider `O=S(=O)(Nc1ncns1)c1cc(F)c(OC[C@H]2CNCC[C@@H]2c2ccc(Cl)c(F)c2)cc1F` (relative stereo), for which the inhibition at 10 µM against CYP2C9 stood at 100%; at CYP2C19, 60%; against CYP2D6, 85%; against CYP3A4, 96%. The IC50 in series [2] is greater than 10 µM.
Consider `O=S(=O)(Nc1ncns1)c1cc(F)c(OC[C@@H]2CNCC[C@H]2c2ccc(Cl)cc2)cc1F` (racemic), for which the inhibition at 10 µM against CYP2C9 amounted to 100%; against CYP2C19, 75%; against CYP2D6, 93%; against CYP3A4, 94%.
On to `O=S(=O)(Nc1ncns1)c1cc(F)c(OC[C@H]2CNCC[C@@H]2c2ccc(Cl)cc2)cc1F`, for which the IC50 against Cytochrome P450 2D6 [3] was 0.26 µM; on Cytochrome P450 2C19, greater than 10 µM; against Cytochrome P450 3A4, 0.15 µM; against Cytochrome P450 2C9, 0.63 µM.
For the compound `O=C1C[C@@H](c2ccc(F)cc2)[C@H](COc2cc(F)c(S(=O)(=O)Nc3ncns3)cc2F)CN1` (relative stereo), the inhibition at 10 µM against CYP2C9 amounted to 58%; against CYP2C19 it was 64%; on CYP2D6, 6%; on CYP3A4, 95%. Besides, the results for the IC50 in series [1] and in series [2] were 0.082 µM and greater than 10 µM, respectively.
With `Cc1cnc(NS(=O)(=O)c2cc(F)c(OC[C@@H]3CNCC[C@H]3c3ccc(Cl)cc3)cc2F)s1` (relative stereo), the inhibition at 10 µM against CYP2C9 was determined as 99%; on CYP2C19 it was 42%; on CYP2D6, 48%; at CYP3A4, 22%.
For the compound `O=S(=O)(Nc1nncs1)c1cc(F)c(OC[C@@H]2CNCC[C@H]2c2ccc(Cl)cc2)cc1F` (relative stereo), the inhibition at 10 µM against CYP2C9 came out at 99%; against CYP2C19, 35%; at CYP2D6, 54%; against CYP3A4 it was 30%. Besides, the IC50 in series [1] is 0.084 µM; in series [2], greater than 10 µM.
For `Cc1cc(NS(=O)(=O)c2cc(F)c(OC[C@@H]3CNCC[C@H]3c3ccc(Cl)cc3)cc2F)no1` (relative stereo), the inhibition at 10 µM against CYP2C9 was 80%; against CYP2C19, 29%; on CYP2D6, 38%; against CYP3A4, 24%. Further, the IC50 in [1] is 1.89 µM.
As to `O=S(=O)(Nc1ccncn1)c1cc(F)c(OC[C@@H]2CNCC[C@H]2c2ccc(Cl)cc2)cc1F` (relative stereo), the inhibition at 10 µM against CYP2C9 stood at 91%; against CYP2C19, 72%; at CYP2D6 it was 94%; against CYP3A4, 57%. Also, the IC50 in series [2] was greater than 10 µM.
In the case of `O=S(=O)(Nc1ncns1)c1cc(F)c(OC[C@@H]2CCNC[C@H]2c2ccc(F)cc2)cc1F` (relative stereo), the inhibition at 10 µM was found to be 97% on CYP2C9, 69% at CYP2C19, 61% against CYP2D6 and 89% against CYP3A4. Also, the IC50 in series [1] came out at 0.032 µM; in series [2], 5.9 µM.
Consider `Cc1ccc([C@H]2CCNC[C@@H]2COc2cc(F)c(S(=O)(=O)Nc3ncns3)cc2F)cc1` (relative stereo), for which the inhibition at 10 µM was determined as 100% against CYP2C9, 59% on CYP2C19, 81% against CYP2D6 and 95% against CYP3A4. Besides, the IC50 in [1] is 0.013 µM; in [2], greater than 10 µM.
`O=S(=O)(Nc1ncns1)c1cc(F)c(OC[C@@H]2CNCC[C@H]2c2ccc(F)cc2)cc1F` (relative stereo): the inhibition at 10 µM stood at 100% against CYP2C9, 97% on CYP2C19, 92% against CYP2D6 and 96% against CYP3A4. In addition, the IC50 in [1] was 0.0068 µM; in series [2], greater than 10 µM.
In the case of `O=S(=O)(Nc1ccc(F)cn1)c1cc(F)c(OC[C@@H]2CNCC[C@H]2c2ccc(Cl)cc2)cc1F` (relative stereo), the inhibition at 10 µM stood at 99% on CYP2C9, 56% at CYP2C19, 50% against CYP2D6 and 42% against CYP3A4. In addition, the IC50 in [1] was 0.071 µM; in series [2], greater than 10 µM.
As for `O=S(=O)(Nc1ncc(F)cn1)c1cc(F)c(OC[C@@H]2CNCC[C@H]2c2ccc(Cl)cc2)cc1F` (relative stereo), the inhibition at 10 µM against CYP2C9 is 73%; against CYP2C19, 26%; at CYP2D6 it was 35%; against CYP3A4, 25%. The IC50 in series [2] is greater than 10 µM.
Regarding `CC(C)(C)OC(=O)N1CC[C@@H](c2ccc(Cl)cc2)[C@H](COc2cc(F)c(S(=O)(=O)Nc3ncns3)cc2F)C1` (relative stereo), the inhibition at 10 µM is 100% against CYP2C9, 100% at CYP2C19, 78% against CYP2D6 and 98% at CYP3A4. For the same compound, in [1], the IC50 is 0.164 µM.
In the case of `O=S(=O)(Nc1ncns1)c1cc(F)c(OC[C@@H]2CN(CC(F)(F)F)CC[C@H]2c2ccc(Cl)cc2)cc1F` (relative stereo), the inhibition at 10 µM on CYP2C9 came out at 100%; on CYP2C19, 85%; against CYP2D6, 47%; at CYP3A4, 97%. Also, the IC50 in series [1] turned out to be 0.13 µM; in series [2], 2.6 µM.
Turning to `O=S(=O)(Nc1ncns1)c1cc(F)c(OC[C@H]2CNCC[C@@H]2c2ccc(F)c(F)c2)cc1F` (relative stereo), the inhibition at 10 µM on CYP2C9 stood at 96%; on CYP2C19 it was 74%; on CYP2D6, 85%; against CYP3A4 it was 90%. For the same compound, the 50% inhibitory concentration (IC50) in series [2] is greater than 10 µM.
Regarding `O=S(=O)(Nc1ncns1)c1cc(F)c(OC[C@@H]2CN(CCF)CC[C@H]2c2ccc(Cl)cc2)cc1F`, the inhibition at 10 µM against CYP2C9 is 97%; on CYP2C19, 96%; on CYP2D6, 90%; against CYP3A4, 98%. Also, the IC50 in series [1] is 0.007 µM; in series [2] it was greater than 10 µM.
As to `O=S(=O)(Nc1ncns1)c1cc(F)c(OC[C@@H]2CN(CC(F)F)CC[C@H]2c2ccc(Cl)cc2)cc1F` (relative stereo), the inhibition at 10 µM on CYP2C9 turned out to be 100%; against CYP2C19, 88%; against CYP2D6, 61%; against CYP3A4 it was 98%. The IC50 in series [1] amounted to 0.038 µM.
For the compound `Cc1nsc(NS(=O)(=O)c2cc(F)c(OC[C@@H]3CNCC[C@H]3c3ccc(Cl)cc3)cc2F)n1` (relative stereo), the inhibition at 10 µM at CYP2C9 is 100%; at CYP2C19, 73%; against CYP2D6, 55%; on CYP3A4, 61%. Moreover, in series [1], the IC50 was determined as 0.194 µM.
As for `CN1CC[C@@H](c2ccc(Cl)cc2)[C@H](COc2cc(F)c(S(=O)(=O)Nc3ncns3)cc2F)C1` (relative stereo), the results for the inhibition at 10 µM against CYP2C9, against CYP2C19 and on CYP3A4 were 97%, 86% and 97%, respectively. Further, the figures for the IC50 in series [1] and in [2] were 0.011 µM and greater than 10 µM, respectively. Also, on Cytochrome P450 2D6 [4], the “inhibition (INH)” value stood at 93%.

Source of the values: ChEMBL document CHEMBL3352194, “The discovery of benzenesulfonamide-based potent and selective inhibitors of voltage-gated sodium channel Na(v)1.7” (Bioorg Med Chem Lett, 2014).
